Assay results as given in patent publication US10357036B2, “Compounds for controlling arthropods” (priority 2015, dated 2019).
Where two headings read alike, the source gives them in different places.

Columns and labels:
Ctenocephalides felis [1] = experiment: Ctenocephalides felis in vitro contact test with adult cat fleas; type: in vivo; settings: application rate 5 μg/cm^2 (=500 g/ha); after 48 h; dead or moribund fleas
How it was run: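 After 48 h at room temperature and ambient humidity, adult cat fleas (5–10 per tube) were scored, with motionless or uncoordinated fleas counted dead or moribund. Tubes had been coated with acetone solutions of compound, the 900 ppm solution giving 5 μg/cm². Efficacy: 100% means all fleas dead or moribund, 0% none harmed.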

Rhipicephalus sanguineus = Rhipicephalus sanguineus in vitro contact test with adult brown dog ticks; type: in vivo; settings: after 48 h
How it was run: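 Efficacy, as % of ticks dead or moribund, was judged 48 h after placing 5-10 adult brown dog ticks in acetone-coated tubes (5 μg/cm^2 from 900 ppm) kept dark at room temperature. Ticks unable to climb away from a 45-50° C hotplate within 5 min counted as affected.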

[2] = test system: cattle ticks (Boophilus microplus) Parkhurst strain, SP-resistant; experiment: Boophilus microplus dip test; type: in vivo; settings: 100 ppm; assessed after 7 days
Description: • Test animals: cattle ticks (Boophilus microplus) Parkhurst strain, SP-resistant • Solvent: dimethyl sulfoxide
10 mg of active ingredient are dissolved in 0.5 ml of dimethyl sulfoxide. To produce a suitable formulation, the active ingredient solution is diluted with water to the concentration desired in each case.
This active ingredient formulation is pipetted into tubes. 8-10 engorged adult female cattle ticks (Boophilus microplus) are transferred into a further tube with holes. The tube is immersed into the active ingredient formulation, and all the ticks are completely wetted. After the liquid has run out, the ticks are transferred on filter discs into plastic dishes and stored in a climate-controlled room.
Efficacy is assessed after 7 days by laying of fertile eggs. Eggs which are not visibly fertile are stored in a climate-controlled cabinet until the larvae hatch after about 42 days. An efficacy of 100% means that none of the ticks has laid any fertile eggs; 0% means that all the eggs are fertile.

Boophilus microplus = Boophilus microplus injection test; type: in vivo; settings: 20 μg/animal; assessed after 7 days
Description: (§1) • Solvent: dimethyl sulfoxide
1 μl of the active ingredient solution is injected into the abdomen of 5 engorged adult female cattle ticks (Boophilus microplus). The animals are transferred into dishes and kept in a climate-controlled room.

Ctenocephalides felis [3] = experiment: Ctenocephalides felis oral test; type: in vivo; settings: 100 ppm in citrated cattle blood; after 2 days
Musca domestica = Musca domestica test; type: in vivo; settings: 100 ppm; adult houseflies; after 2 days
Description: as §1
To produce a suitable active ingredient formulation, 10 mg of active ingredient are mixed with 0.5 ml of dimethyl sulfoxide, and the concentrate is diluted with water to the desired concentration.
Vessels containing a sponge treated with sugar solution and the active ingredient formulation of the desired concentration are populated with 10 adult houseflies (Musca domestica).

Meloidogyne incognita = Meloidogyne incognita test; type: in vivo; settings: 20 ppm; after 14 days
Description: • Solvent: 125.0 parts by weight of acetone
To produce a suitable active compound preparation, 1 part by weight of active compound is mixed with the stated amount of solvent and the concentrate is diluted to the desired concentration with water.
Vessels are filled with sand, active compound solution, an egg/larvae suspension of the southern root-knot nematode (Meloidogyne incognita) and lettuce seeds. The lettuce seeds germinate and the plants develop. The galls develop on the roots.
After 14 days, the nematicidal efficacy in % is determined by the formation of galls. 100% means that no galls were found; 0% means that the number of galls on the treated plants corresponds to the untreated control.

Myzus persicae = Myzus persicae spray test (Chinese cabbage leaf discs); type: in vivo; settings: 100 g/ha; after 6 days
Description: (§2) After 6 days, the efficacy in % is determined.

Spodoptera frugiperda = Spodoptera frugiperda spray test; type: in vivo; settings: 100 g/ha, after 7 days
Tetranychus urticae [4] = experiment: Tetranychus urticae spray test, OP-resistant (bean leaf discs); type: in vivo; settings: 100 g/ha; after 6 days
Description: as §2

Phaedon cochleariae = Phaedon cochleariae spray test; settings: for efficacy: 100 g/ha, after 7 days
Tetranychus urticae [5] = experiment: Tetranychus urticae spray test, OP-resistant (bean plants); type: in vivo; settings: 4 ppm; after 7 days
Description: To produce further test concentrations, the latter is diluted with emulsifier-containing water. When addition of ammonium salts and/or penetrants is required, these are each added at a concentration of 1000 ppm to the preparation solution.
Bean plants (Phaseolus vulgaris), which are heavily infested by all stages of the greenhouse red spider mite (Tetranychus urticae), are treated by being sprayed with the active compound preparation at the desired concentration.

[6] = test system: Amaranthus retroflexus (AMARE); experiment: Herbicidal activity, pre-emergence; type: in vivo; settings: 1280 g/ha, 3 weeks
Excerpt: Seeds of monocotyledonous and dicotyledonous weed plants and crop plants were placed in wood-fibre pots in sandy loam and covered with soil. The compounds according to the invention, formulated as emulsion concentrates (EC), were then applied to the surface of the covering soil as an emulsion at a water application rate equating to 600 to 800 Uha with addition of 0.2% wetting agent.
After the treatment, the pots were placed in a greenhouse and kept under good growth conditions for the test plants. The damage to the test plants was scored visually after a test period of 3 weeks by comparison with untreated controls (herbicidal activity in percent (%): 100% activity=the plants have died, 0% activity=like control plants). Here, for example, compounds No. Ia-17, Ia-37, Ia-28 and Ia-56 at an application rate of 1280 g/ha each show 100% efficacy against Amaranthus retroflexus (AMARE) and with the exception of Ia-56, even against Viola tricolor (VIOTR). Furthermore, compounds no. Ia-17, Ia-37 and Ia-28 at the same application rate show an 80% or better efficacy against Matricaria inodorae (MATIN) and Ia-17 and Ia-37 even against Stellaria media (STEME).

[7] = test system: Anopheles gambiae strain RSPH (homozygot kdr); experiment: whole plant or invertebrate; type: in vivo; settings: read-out: efficacy (mortality)
Description: (§3) • Solvent: acetone+2000 ppm rapeseed oil methyl ester (RME)
(§4) To produce a suitable active compound formulation, the active compound is dissolved in the solvent (2 mg/ml). The active compound formulation is pipetted onto a glazed tile and, after it has dried off, adult mosquitoes of the species Anopheles gambiae strain RSPH (homozygot kdr) are placed onto the treated tile. The exposure time is 30 minutes.

[8] = test system: Aedes aegypti strain MONHEIM; experiment: whole plant or invertebrate; type: in vivo; settings: read-out: efficacy (mortality)
Description: as §3
as §4, with “Aedes aegypti” for “Anopheles gambiae”, “MONHEIM” for “RSPH (homozygot kdr)”

[9] = application rate 5 μg/cm^2 (=500 g/ha), dead or moribund ticks

SMILES	efficacy (Ctenocephalides felis [1])	efficacy (Rhipicephalus sanguineus; [9])	efficacy (laying of fertile eggs) (Boophilus microplus)	efficacy (rate of extermination) (Ctenocephalides felis [3])	efficacy (rate of extermination) (Musca domestica)	nematicidal efficacy (formation of galls) (Meloidogyne incognita)	efficacy (Spodoptera frugiperda)	efficacy (Tetranychus urticae [4])	efficacy (Phaedon cochleariae)	efficacy (Tetranychus urticae [5])	other results
CC(=O)NCc1cc(-c2cnn(-c3c(Cl)cc(C(F)(C(F)(F)F)C(F)(F)F)cc3Cl)c2)ccc1F [Ia-15]	100%	100%	100%	100%	100%	90%	100%	100%	100%	–	efficacy (laying of fertile eggs) [2]: 90%; efficacy (Myzus persicae): 90%
O=C(NCc1cc(-c2cn(-c3c(Cl)cc(C(F)(C(F)(F)F)C(F)(F)F)cc3Cl)cn2)ccc1F)C1CC1 [I-T2-04]	100%	–	100%	100%	–	–	83%	–	100%	100%	efficacy (laying of fertile eggs) [2]: 100%
CC(=O)NCc1cc(-c2cnn(-c3c(Cl)cc(C(F)(C(F)(F)F)C(F)(F)F)cc3OC(F)F)c2)ccc1Cl [Ia-53]	90%	100%	100%	100%	100%	–	100%	–	100%	99%	efficacy (laying of fertile eggs) [2]: 100%
CC(=O)NCc1cc(-c2cnn(-c3c(Cl)cc(C(F)(C(F)(F)F)C(F)(F)F)cc3C(F)F)c2)ccc1F [Ia-34]	–	–	–	–	–	100%	100%	100%	100%	–	efficacy (Myzus persicae): 90%
CC(=O)NCc1cccc(-c2cnn(-c3c(Cl)cc(C(F)(C(F)(F)F)C(F)(F)F)cc3C#N)c2)c1 [Ia-102]	–	–	–	–	–	100%	–	90%	100%	–	–
CC(=O)NCc1cc(-c2cnn(-c3c(Cl)cc(C(F)(C(F)(F)F)C(F)(F)F)cc3C(F)(F)F)c2)ccc1Cl [Ia-55]	70%	100%	100%	100%	100%	–	100%	–	100%	99%	–
O=C(NCc1cc(-c2cnn(-c3c(Cl)cc(C(F)(C(F)(F)F)C(F)(F)F)cc3OC(F)(F)F)c2)ccc1Cl)C1CC1 [Ia-56]	100%	–	100%	100%	100%	–	100%	–	100%	–	efficacy (Rhipicephalus sanguineus; application rate 1 μg/cm^2 (=100 g/ha)): 100%; herbicidal efficacy [6]: 100%
CCC(=O)NCc1c(F)ccc(-c2cnn(-c3c(Cl)cc(C(F)(C(F)(F)F)C(F)(F)F)cc3C(F)F)c2)c1F [Ia-141]	–	100%	100%	100%	100%	90%	100%	100%	100%	–	–
CC(=O)N(C)Cc1cccc(-c2cnn(-c3c(Cl)cc(C(F)(C(F)(F)F)C(F)(F)F)cc3Cl)c2)c1 [Ia-42]	–	–	100%	100%	80%	90%	–	100%	100%	–	–
CC(=O)NCc1cc(-c2cnn(-c3c(Cl)cc(C(F)(C(F)(F)F)C(F)(F)F)cc3C#N)c2)ccc1F [Ia-105]	–	–	–	–	–	90%	100%	100%	100%	–	efficacy (Myzus persicae): 90%
CCC(=O)NCc1cccc(-c2cnn(-c3c(Cl)cc(C(F)(C(F)(F)F)C(F)(F)F)cc3Cl)c2)c1 [Ia-08]	100%	80%	100%	100%	80%	100%	100%	90%	100%	–	–
CCC(=O)NCc1cc(-c2cnn(-c3c(Cl)cc(C(F)(C(F)(F)F)C(F)(F)F)cc3OC(F)F)c2)ccc1Cl [Ia-51]	100%	100%	100%	100%	100%	–	100%	–	100%	99%	efficacy (laying of fertile eggs) [2]: 100%
CC(=O)NCc1cc(-c2cnn(-c3c(Cl)cc(C(F)(C(F)(F)F)C(F)(F)F)cc3OC(F)(F)F)c2)ccc1Cl [Ia-57]	–	80%	100%	100%	100%	–	100%	–	100%	99%	–
CC(=O)N(Cc1cc(-c2cnn(-c3c(Cl)cc(C(F)(C(F)(F)F)C(F)(F)F)cc3Cl)c2)ccc1Cl)C(C)=O [Ia-108, N-Acetyl-N-(2-chloro-5-{1-[2,6-dichloro-4-(1,1,1,2,3,3,3-heptafluoropropan-2-yl)phenyl]-1H-pyrazol-4-yl}benzyl)acetamide]	100%	80%	100%	100%	100%	–	–	90%	–	–	pest or weed control at 100 g/ha (Spodoptera frugiperda; Spodoptera frugiperda, 168 h, read-out: efficacy): 100%; mortality at 100 mg/m2 [7]: 90 to 100%; mortality at 20 mg/m2 [8]: 90 to 100%; mortality at 100 mg/m2 [8]: 90 to 100%; pest or weed control at 100 g/ha (Phaedon cochleariae; Phaedon cochleariae, 168 h, read-out: efficacy): 100%; chromatographic logP (reversed-phase C18 HPLC column, logP, HPLC, C18, acetonitrile/water with formic acid (note a)): 5.14; chromatographic logP (reversed-phase C18 HPLC column, logP^a, HPLC-MS method a)): 5.14
